Laboratory results reported in paper PMC6158096 (Molecular microbiology, 2018).
Several values for one entry are separate records, joined by “and”; a condition that tells them apart may be missing. Equal entries are not always repeated. Where two headings read alike, the source gives them in different places. Ends that are not written are not given here. * marks the point of attachment. FITC = O=C1OC2(c3ccc(O)cc3Oc3cc(O)ccc32)c2ccc(NC(=S)*)cc21; Ahx = NCCCCCC(=O)O

What was measured:
[1] = system: ComR;sXIP (ComS 11-17) (Streptococcus mutans UA159;Streptococcus mutans); assay: fluorescence polarization
[2] = system: ComR;sXIP (ComS 11-17) (Streptococcus mutans UA159;Streptococcus mutans); assay: fluorescence polarization; remark: listed apart in the source
CcpA = assay: Fluorescence polarization: FITC-labeled XrpA-N1 binding to CcpA; parameters: species or system Streptococcus mutans; conditions: 10 nM probe, increasing purified protein, 10 μM sXIP
SppA (SMU.508) = assay: Fluorescence polarization: FITC-labeled XrpA-N1 binding to SppA; parameters: species or system Streptococcus mutans; conditions: 10 nM probe, increasing purified protein, 10 μM sXIP
ComR = assay: Fluorescence polarization: FITC-labeled XrpA-N1 direct binding to ComR; parameters: species or system Streptococcus mutans; conditions: 10 nM FITC-labeled XrpA-N1, increasing concentrations of sXIP

Substance: ATGGGACATTTATGTCCTGTCCCCCACAGGACATAAATGTCCCAT [PcomX ECom-box stem-loop probe]
- Kd [1]: 0.147 µM
- Kd [2]: 0.169 µM and 0.165 µM

Substance: {FITC-Ahx}-MIQNCISILRHFLITLK [FITC-labeled XrpA-N1]
- interaction of FITC-labeled XrpA-N1 with CcpA (CcpA): neither showed any ability to interact
- interaction of FITC-labeled XrpA-N1 with SppA (SppA (SMU.508)): neither showed any ability to interact

Substance: GLDWWSL [sXIP]
- effect on fluorescent XrpA-N1 affinity for ComR (ComR): no effect
